Results from US4329339A, “Anthracyclinones and derivatives thereof” (Hoffmann-La Roche Inc., priority 1980, dated 1982).
Converted amounts (≈) assume the structure as drawn. Where two headings read alike, the source gives them in different places.

Legend:
Bacillus cereus Ro 179B = assay: MIC, agar streak method, Bacillus cereus Ro 179B; assay type: cell-based; conditions: RO179B, Heart infusion agar
Text: (§1) | (1) Heart infusion agar

[1] = tested on: Bacillus subtilis IAM 1027; assay: MIC, agar streak method, Bacillus subtilis IAM 1027; assay type: cell-based; conditions: IAM1027, Heart infusion agar
Text: as §1

Sarcina lutea IAM 1009 = assay: MIC, agar streak method, Sarcina lutea IAM 1009; assay type: cell-based; conditions: Micrococcus luteus, IAM1009, Heart infusion agar
Text: as §1

[2] = tested on: Staphylococcus aureus 209P IAM 1011; assay: MIC, agar streak method, Staphylococcus aureus 209P IAM 1011; assay type: cell-based; conditions: Heart infusion agar
Text: as §1

[3] = tested on: Staphylococcus aureus 209P Stf; assay: MIC, agar streak method, Staphylococcus aureus 209P Stf; assay type: cell-based
[4] = tested on: Staphylococcus epidermidis IFO 12993; assay: MIC, agar streak method, Staphylococcus epidermidis IFO 12993; assay type: cell-based; conditions: IFO12993, Heart infusion agar
Text: as §1

[5] = tested on: Micrococcus flavus ATCC 10240; assay: MIC, agar streak method, Micrococcus flavus ATCC 10240; assay type: cell-based; conditions: ATCC10240, Heart infusion agar
Text: as §1

[6] = tested on: Mycobacterium smegmatis IFO 13167; assay: MIC, agar streak method, Mycobacterium smegmatis IFO 13167; assay type: cell-based; conditions: Mycolicibacterium smegmatis, IFO13167, Heart infusion agar
Text: as §1

[7] = tested on: Escherichia coli K-12 IAM 1264; assay: MIC, agar streak method, Escherichia coli K-12 IAM 1264; assay type: cell-based; conditions: IAM1264, Heart infusion agar
Text: as §1

[8] = tested on: Escherichia coli NIHJ IFO 12734; assay: MIC, agar streak method, Escherichia coli NIHJ IFO 12734; assay type: cell-based; conditions: IFO12734, Heart infusion agar
Text: as §1

[9] = tested on: Klebsiella pneumoniae IFO 3512; assay: MIC, agar streak method, Klebsiella pneumoniae IFO 3512; assay type: cell-based; conditions: IFO3512, Heart infusion agar
Text: as §1

[10] = tested on: Proteus vulgaris IAM 1025; assay: MIC, agar streak method, Proteus vulgaris IAM 1025; assay type: cell-based; conditions: IAM1025, Heart infusion agar
Text: as §1

[11] = tested on: Pseudomonas aeruginosa IFO 12689; assay: MIC, agar streak method, Pseudomonas aeruginosa IFO 12689; assay type: cell-based; conditions: IFO12689, Heart infusion agar
Text: as §1

[12] = tested on: Serratia marcescens IFO 12648; assay: MIC, agar streak method, Serratia marcescens IFO 12648; assay type: cell-based; conditions: IFO12648, Heart infusion agar
Text: as §1

[13] = tested on: Candida albicans ATCC 10231; assay: MIC, agar streak method, Candida albicans ATCC 10231; assay type: cell-based; conditions: ATCC10231, Sabouraud dextrose agar
Text: (§2) | (2) Sabouraud dextrose agar

[14] = tested on: Candida tropicalis ATCC 13803; assay: MIC, agar streak method, Candida tropicalis ATCC 13803; assay type: cell-based; conditions: ATCC13803, Sabouraud dextrose agar
Text: as §2

[15] = tested on: Saccharomyces cerevisiae ATCC 9763; assay: MIC, agar streak method, Saccharomyces cerevisiae ATCC 9763; assay type: cell-based; conditions: ATCC9763, Sabouraud dextrose agar
Text: as §2

[16] = Acute intraperitoneal toxicity in mice; conditions: mouse, in vivo, ip, judged 72 hours after a single intraperitoneal injection
P388 leukaemia = assay: Antitumour effect against P388 leukaemia in mice; assay type: in vivo; conditions: 1×10^6 P388 cells i.p., CDF1 mice
Description: The anthracycline glycosides provided by the present invention were tested against P388 leukaemia in mice. When CDF1 mice are inoculated with 1×10^6 cells of P388 intraperitoneally and each of the antibiotics is administered intraperitoneally on days 1, 5 and 9, the survival time of the treated mice is prolonged as shown in Table 7 hereinafter.

[17] = Staphylococcus aureus 209P Stf, read-out: MIC
[18] = 1.88 mg/kg/day i.p. on days 1, 5 and 9
[19] = 3.75 mg/kg/day i.p. on days 1, 5 and 9
[20] = 7.5 mg/kg/day i.p. on days 1, 5 and 9
[21] = 15 mg/kg/day i.p. on days 1, 5 and 9

| Compound | MIC (Bacillus cereus Ro 179B) [µg/mL] | MIC [1] [µg/mL] | MIC (Sarcina lutea IAM 1009) [µg/mL] | MIC [2] [µg/mL] | MIC [4] [µg/mL] | MIC [5] [µg/mL] | MIC [6] [µg/mL] | MIC [7] [µg/mL] | MIC [8] [µg/mL] | MIC [9] [µg/mL] | MIC [10] [µg/mL] | MIC [11] [µg/mL] | MIC [12] [µg/mL] | MIC [13] [µg/mL] | MIC [14] [µg/mL] | MIC [15] [µg/mL] | LD50 at 72 h [16] [mg/kg] | Mean survival (T/C, %) (P388 leukaemia; [18]) [%] | Mean survival (T/C, %) (P388 leukaemia; [19]) [%] | Mean survival (T/C, %) (P388 leukaemia; [20]) [%] | also measured |
| --- | --- | --- | --- | --- | --- | --- | --- | --- | --- | --- | --- | --- | --- | --- | --- | --- | --- | --- | --- | --- | --- |
| COC(=O)C1c2cc3c(c(O)c2C(OC2CC(N(C)C)C(OC4CC5OC6CC(=O)C(C)OC6OC5C(C)O4)C(C)O2)CC1(C)O)C(=O)c1c(O)cccc1C3=O (stereo not shown) [Auramycin B] | 0.2 (≈ 0.251 µM) | 0.78 (≈ 0.98 µM) | 0.05 (≈ 0.0628 µM) | 0.39 (≈ 0.49 µM) | 1.56 (≈ 1.96 µM) | 0.05 (≈ 0.0628 µM) | 3.12 (≈ 3.92 µM) | > 100 | > 100 | > 100 | > 100 | > 100 | > 100 | > 100 | > 100 | > 100 | ~100 | 113 | 124 | 149 | MIC [3, 17]: 0.39 µg/mL (≈ 0.49 µM); Mean survival (T/C, %) (P388 leukaemia; [21]): 196% |
| COC(=O)C1c2cc3c(c(O)c2C(OC2CC(N(C)C)C(OC4CC5OC6CC(=O)C(C)OC6OC5C(C)O4)C(C)O2)CC1(O)CC(C)=O)C(=O)c1c(O)cccc1C3=O (stereo not shown) [Sulfurmycin B] | 0.39 (≈ 0.465 µM) | 0.78 (≈ 0.931 µM) | 0.1 (≈ 0.119 µM) | 0.78 (≈ 0.931 µM) | 1.56 (≈ 1.86 µM) | 0.1 (≈ 0.119 µM) | 6.25 (≈ 7.46 µM) | > 100 | > 100 | > 100 | > 100 | > 100 | > 100 | > 100 | > 100 | > 100 | 25 to 50 | 124 | 124 | 155 | MIC ([3]; Staphylococcus aureus, 209P): 0.39 µg/mL (≈ 0.465 µM); Mean survival (T/C, %) (P388 leukaemia; [21]): 165% |
| COC(=O)C1c2cc3c(c(O)c2C(OC2CC(N(C)C)C(OC4CC(O)C(OC5CCC(=O)C(C)O5)C(C)O4)C(C)O2)CC1(O)CC(C)=O)C(=O)c1c(O)cccc1C3=O (stereo not shown) [Sulfurmycin A] | 0.2 (≈ 0.238 µM) | 0.78 (≈ 0.929 µM) | 0.1 (≈ 0.119 µM) | 0.78 (≈ 0.929 µM) | 3.12 (≈ 3.71 µM) | 0.2 (≈ 0.238 µM) | 25 (≈ 29.8 µM) | > 100 | > 100 | > 100 | > 100 | > 100 | > 100 | > 100 | > 100 | > 100 | ~100 | 124 | 134 | 144 | MIC ([3]; Staphylococcus aureus, 209P): 0.2 µg/mL (≈ 0.238 µM); Mean survival (T/C, %) (P388 leukaemia; [21]): 165% |
| COC(=O)C1c2cc3c(c(O)c2C(OC2CC(N(C)C)C(OC4CC(O)C(OC5CCC(=O)C(C)O5)C(C)O4)C(C)O2)CC1(C)O)C(=O)c1c(O)cccc1C3=O (stereo not shown) [Auramycin A] | 0.39 (≈ 0.489 µM) | 3.12 (≈ 3.91 µM) | 0.1 (≈ 0.125 µM) | 1.56 (≈ 1.96 µM) | 3.12 (≈ 3.91 µM) | 0.1 (≈ 0.125 µM) | 6.25 (≈ 7.83 µM) | > 100 | > 100 | > 100 | > 100 | > 100 | > 100 | > 100 | > 100 | > 100 | ~100 | 139 | 129 | 134 | MIC [3, 17]: 0.78 µg/mL (≈ 0.978 µM); Mean survival (T/C, %) (P388 leukaemia; [21]): 170% |
